Measured values: patent publication US12122816B2, “Long acting peptide tyrosine tyrosine (PYY) analogs and methods of use” (Intarcia Therapeutics, Inc., priority 2020, dated 2024)
Read-outs that look alike come from different tables or passages of the source. Starred links: 1 amine or outer side, 2 acyl side, 3 side chain; linkers in the order of their positions; H or OH if unused. Residues, ends and D or L forms follow the SMILES beside them. Groups on a side chain read outwards from the residue. *: point of attachment. C20 diacid = O=C(O)CCCCCCCCCCCCCCCCCCC(=O)*; γGlu = O=C(O)[C@H](CCC(=O)[*:2])N[*:1]

Key:
human Y2 receptor = target: T1, human Y2 receptor (Homo sapiens, UniProt P49146); test: NPY receptor functional assay (cAMP, HEK-CNG cells, ACTOne membrane potential dye); type: cell-based; conditions: NPY2R pEC50, HEK-CNG cells; standard PYY(3-36); species (human or rat) not given
T1 sequence (P49146 1-381): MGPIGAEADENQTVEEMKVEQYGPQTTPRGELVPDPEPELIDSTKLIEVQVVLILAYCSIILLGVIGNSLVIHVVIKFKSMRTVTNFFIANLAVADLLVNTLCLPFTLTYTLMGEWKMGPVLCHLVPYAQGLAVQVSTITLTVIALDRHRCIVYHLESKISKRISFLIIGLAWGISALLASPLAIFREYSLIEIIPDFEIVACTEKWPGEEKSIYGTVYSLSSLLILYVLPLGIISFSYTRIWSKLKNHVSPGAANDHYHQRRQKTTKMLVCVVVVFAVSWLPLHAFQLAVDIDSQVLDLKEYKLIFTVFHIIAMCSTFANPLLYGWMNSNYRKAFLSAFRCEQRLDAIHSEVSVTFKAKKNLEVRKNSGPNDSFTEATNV
Procedure, shortened: (§1)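 HEK-CNG cells stably expressing each human receptor; peptides added in triplicate for 50 minutes at room temperature, with agonism read as decreased isoproterenol-induced membrane potential dye signal (final/initial read).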

human Y5 receptor = target: T2, human Y5 receptor (Homo sapiens, UniProt Q15761); test: as above; type: cell-based; conditions: NPY5R pEC50, HEK-CNG cells; standard NPY; species (human or rat) not given
T2 sequence (Q15761 1-445): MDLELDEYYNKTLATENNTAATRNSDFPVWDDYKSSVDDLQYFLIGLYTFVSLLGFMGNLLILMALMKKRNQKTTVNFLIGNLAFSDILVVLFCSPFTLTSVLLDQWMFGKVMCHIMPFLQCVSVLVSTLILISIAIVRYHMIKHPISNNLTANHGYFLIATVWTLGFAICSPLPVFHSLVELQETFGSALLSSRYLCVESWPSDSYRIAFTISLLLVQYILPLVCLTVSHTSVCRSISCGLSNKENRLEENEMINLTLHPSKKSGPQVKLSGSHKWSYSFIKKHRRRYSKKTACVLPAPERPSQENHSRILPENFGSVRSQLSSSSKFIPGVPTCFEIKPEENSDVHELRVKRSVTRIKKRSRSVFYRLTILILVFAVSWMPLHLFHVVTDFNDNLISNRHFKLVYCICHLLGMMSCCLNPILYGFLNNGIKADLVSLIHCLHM
Procedure, shortened: as §1

[1] = In vitro metabolic stability in kidney brush border membranes (kBBM); type: in vitro ADME; conditions: 1 mcM peptide, 37° C.
Experimental: In vitro incubations in kidney brush border membrane (kBBM) preparations were used to characterize the ability of peptides to resist degradation by proteases and peptidases in the systemic circulation. kBBM were selected because they contain a high concentration of a diverse set of proteases and peptidases, many of which are present throughout the body.
Brush border membranes from rat and human kidney tissue were prepared via centrifugation and stored at −70° C. Thawed stocks of rat or human kBBM were diluted to the appropriate concentration in 25 mM HEPES buffer (pH 7.4) containing 1% casein and aliquoted into a 96-well plate. The kBBM solutions were pre-warmed for 10 minutes at 37° C. […] The final concentration of kBBM in each incubation was 50 mcg protein/mL. Reactions were maintained at 37° C. in a shaking water bath. […] Quenched samples were centrifuged at 2178×g for 10 min and then a portion of the supernatants were transferred to a clean 96-well plate and diluted 1:1 with water. Samples were analyzed by UPLC-MS/MS.

[2] = In vitro stability in subcutaneous (SC) tissue homogenates; type: in vitro ADME; conditions: subcutaneous tissue homogenate, pH 7.4; human SC tissue homogenate 1.0 mg protein/mL, 10 mcM peptide, 37° C.; read-out: (H)SC tissue stability t½ (converted)
Experimental: In vitro incubations in subcutaneous (SC) tissue homogenates were used to characterize the ability of peptides to resist pre-systemic degradation by proteases and peptidases after SC administration. […] Peptides with high SC bioavailability are stable in this assay, while peptides with low SC bioavailability are unstable in this assay.
Human SC tissue was homogenized in cold 25 mM HEPES buffer (pH 7.4, 10-fold volume based on sample weight), and then filtered through a double layer of cheesecloth. The filtrates were aliquoted, flash frozen on a methanol/dry ice bath and stored at −80° C. The protein concentration of each pooled batch was determined using the BCA protein assay. Thawed stocks of human SC tissue homogenates were diluted to 1.0 mg protein/mL in 25 mM HEPES buffer (pH 7.4) and aliquoted into a 96-well plate. The diluted SC homogenates were pre-warmed for 10 minutes at 37° C. […] Reactions were maintained at 37° C. in a shaking water bath. […] Quenched samples were centrifuged at 2178×g for 10 min and then a portion of the supernatants were transferred to a clean 96-well plate and diluted 1:10 with water. Samples were analyzed by UPLC-MS/MS.

human Y4 receptor = human Y4 receptor (Homo sapiens, UniProt P50391); test: NPY receptor functional assay (cAMP, HEK-CNG cells, ACTOne membrane potential dye); type: cell-based; conditions: standard PP, species (human or rat) not given
Sequence of human Y4 receptor (P50391 whole entry): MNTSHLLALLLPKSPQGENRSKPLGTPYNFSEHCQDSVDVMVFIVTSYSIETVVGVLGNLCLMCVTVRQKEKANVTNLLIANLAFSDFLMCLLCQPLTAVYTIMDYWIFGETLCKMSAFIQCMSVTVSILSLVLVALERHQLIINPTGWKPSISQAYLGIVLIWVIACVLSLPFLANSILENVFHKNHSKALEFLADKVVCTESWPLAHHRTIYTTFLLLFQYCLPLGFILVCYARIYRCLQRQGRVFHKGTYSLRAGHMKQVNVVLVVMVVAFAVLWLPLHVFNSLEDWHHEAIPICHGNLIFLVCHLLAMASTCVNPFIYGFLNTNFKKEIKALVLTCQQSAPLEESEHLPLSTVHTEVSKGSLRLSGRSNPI
Procedure, shortened: as §1

CC(C)C[C@H](NC(=O)[C@H](CC(=O)O)NC(=O)[C@H](CCCCNC(=O)CC[C@H](NC(=O)COCCOCCNC(=O)COCCOCCNC(=O)CC[C@H](NC(=O)CCCCCCCCCCCCCCCCCCC(=O)O)C(=O)O)C(=O)O)NC(=O)[C@H](Cc1ccc(O)cc1)NC(=O)[C@H](Cc1ccc(O)cc1)NC(=O)[C@H](CCCNC(=N)N)NC(=O)[C@H](CC(N)=O)NC(=O)[C@H](Cc1c[nH]c2ccccc12)NC(=O)[C@H](CCC(=O)O)NC(=O)[C@H](CCC(=O)O)NC(=O)[C@@H]1CCCN1C(=O)[C@H](CO)NC(=O)[C@H](C)NC(=O)[C@H](CC(=O)O)NC(=O)[C@H](CCCCN)NC(=O)CNC(=O)[C@@H]1CCCN1C(=O)[C@H](C)NC(=O)[C@H](CCC(=O)O)NC(=O)[C@@H]1CCCN1C(=O)[C@H](CCCCN)NC(=O)[C@@H]1CCCN1)C(=O)N[C@@H](CCCNC(=N)N)C(=O)N[C@@H](Cc1c[nH]cn1)C(=O)N[C@@H](Cc1ccc(O)cc1)C(=O)N[C@@H](CC(C)C)C(=O)N[C@@H](CC(N)=O)C(=O)N[C@@H](Cc1c[nH]c2ccccc12)C(=O)N[C@@H](CC(C)C)C(=O)N[C@H](C(=O)N[C@@H](CCCNC(=N)N)C(=O)N[C@@H](CCC(N)=O)C(=O)N[C@@H](CCCNC(=N)N)C(=O)N[C@@H](Cc1ccccc1)C(N)=O)[C@@H](C)O [Compound A16]
EC50 (human Y2 receptor): 0.0631 nM | EC50 (human Y5 receptor): 0.794 nM | half-life at 1 mcM ([1]; pH 7.4, human kBBM 50 mcg protein/mL, read-out: hkBBM t½ (converted)): > 12 h | half-life at 1 mcM ([1]; pH 7.4, rat kBBM 50 mcg protein/mL, read-out: rkBBM t½): > 12 h | half-life at 10 mcM [2]: 7.3 h

CC(C)C[C@H](NC(=O)[C@H](CC(=O)O)NC(=O)[C@H](C)NC(=O)[C@H](Cc1ccc(O)cc1)NC(=O)[C@H](Cc1ccc(O)cc1)NC(=O)[C@H](CCCNC(=N)N)NC(=O)[C@H](CC(N)=O)NC(=O)[C@H](Cc1c[nH]c2ccccc12)NC(=O)[C@H](CCC(=O)O)NC(=O)[C@H](CCC(=O)O)NC(=O)[C@@H]1CCCN1C(=O)[C@H](CO)NC(=O)[C@H](C)NC(=O)[C@H](CC(=O)O)NC(=O)[C@H](CCCCN)NC(=O)CNC(=O)[C@@H]1CCCN1C(=O)[C@H](C)NC(=O)[C@H](CCC(=O)O)NC(=O)[C@@H]1CCCN1C(=O)[C@H](CCCCN)NC(=O)[C@@H]1CCCN1)C(=O)N[C@@H](CCCCNC(=O)CC[C@H](NC(=O)CC[C@H](NC(=O)CCCCCCCCCCCCCCCCCCC(=O)O)C(=O)O)C(=O)O)C(=O)N[C@@H](Cc1c[nH]cn1)C(=O)N[C@@H](Cc1ccc(O)cc1)C(=O)N[C@@H](CC(C)C)C(=O)N[C@@H](CC(N)=O)C(=O)N[C@@H](Cc1c[nH]c2ccccc12)C(=O)N[C@@H](CC(C)C)C(=O)N[C@H](C(=O)N[C@@H](CCCNC(=N)N)C(=O)N[C@@H](CCC(N)=O)C(=O)N[C@@H](CCCNC(=N)N)C(=O)N[C@@H](Cc1ccccc1)C(N)=O)[C@@H](C)O [Compound A53]
EC50 (human Y2 receptor): 2 nM | NPY4R pEC50 (human Y4 receptor): inactive | EC50 (human Y5 receptor): 50.1 nM

CC(C)C[C@H](NC(=O)[C@H](CC(=O)O)NC(=O)[C@H](CCCCNC(=O)CC[C@H](NC(=O)CC[C@H](NC(=O)CCCCCCCCCCCCCCCCCCC(=O)O)C(=O)O)C(=O)O)NC(=O)[C@H](Cc1ccc(O)cc1)NC(=O)[C@H](Cc1ccc(O)cc1)NC(=O)[C@H](CCCNC(=N)N)NC(=O)[C@H](CC(N)=O)NC(=O)[C@H](Cc1c[nH]c2ccccc12)NC(=O)[C@H](CCC(=O)O)NC(=O)[C@H](CCC(=O)O)NC(=O)[C@@H]1CCCN1C(=O)[C@H](CO)NC(=O)[C@H](C)NC(=O)[C@H](CC(=O)O)NC(=O)[C@H](CCCCN)NC(=O)CNC(=O)[C@@H]1CCCN1C(=O)[C@H](C)NC(=O)[C@H](CCC(=O)O)NC(=O)[C@@H]1CCCN1C(=O)[C@H](CCCCN)NC(=O)[C@@H]1CCCN1)C(=O)N[C@@H](CCCNC(=N)N)C(=O)N[C@@H](Cc1c[nH]cn1)C(=O)N[C@@H](Cc1ccc(O)cc1)C(=O)N[C@@H](CC(C)C)C(=O)N[C@@H](CC(N)=O)C(=O)N[C@@H](Cc1c[nH]c2ccccc12)C(=O)N[C@@H](CC(C)C)C(=O)N[C@H](C(=O)N[C@@H](CCCNC(=N)N)C(=O)N[C@@H](CCC(N)=O)C(=O)N[C@@H](CCCNC(=N)N)C(=O)N[C@@H](Cc1ccccc1)C(N)=O)[C@@H](C)O [Compound A54]
EC50 (human Y2 receptor): 20 nM | NPY4R pEC50 (human Y4 receptor): inactive | EC50 (human Y5 receptor): 10 nM

CC(C)C[C@H](NC(=O)[C@H](CC(=O)O)NC(=O)[C@H](C)NC(=O)[C@H](Cc1ccc(O)cc1)NC(=O)[C@H](Cc1ccc(O)cc1)NC(=O)[C@H](CCCNC(=N)N)NC(=O)[C@H](CCCCNC(=O)CC[C@H](NC(=O)CC[C@H](NC(=O)CCCCCCCCCCCCCCCCCCC(=O)O)C(=O)O)C(=O)O)NC(=O)[C@H](Cc1c[nH]c2ccccc12)NC(=O)[C@H](CCC(=O)O)NC(=O)[C@H](CCC(=O)O)NC(=O)[C@@H]1CCCN1C(=O)[C@H](CO)NC(=O)[C@H](C)NC(=O)[C@H](CC(=O)O)NC(=O)[C@H](CCCCN)NC(=O)CNC(=O)[C@@H]1CCCN1C(=O)[C@H](C)NC(=O)[C@H](CCC(=O)O)NC(=O)[C@@H]1CCCN1C(=O)[C@H](CCCCN)NC(=O)[C@@H]1CCCN1)C(=O)N[C@@H](CCCNC(=N)N)C(=O)N[C@@H](Cc1c[nH]cn1)C(=O)N[C@@H](Cc1ccc(O)cc1)C(=O)N[C@@H](CC(C)C)C(=O)N[C@@H](CC(N)=O)C(=O)N[C@@H](Cc1c[nH]c2ccccc12)C(=O)N[C@@H](CC(C)C)C(=O)N[C@H](C(=O)N[C@@H](CCCNC(=N)N)C(=O)N[C@@H](CCC(N)=O)C(=O)N[C@@H](CCCNC(=N)N)C(=O)N[C@@H](Cc1ccccc1)C(N)=O)[C@@H](C)O [Compound A55]
EC50 (human Y2 receptor): 1.26 nM | NPY4R pEC50 (human Y4 receptor): inactive | EC50 (human Y5 receptor): 20 nM

CC(C)C[C@H](NC(=O)[C@H](Cc1ccc(O)cc1)NC(=O)[C@H](Cc1c[nH]cn1)NC(=O)[C@H](CCCNC(=N)N)NC(=O)[C@H](C)NC(=O)[C@H](CC(=O)O)NC(=O)[C@H](C)NC(=O)[C@H](Cc1ccc(O)cc1)NC(=O)[C@H](Cc1ccc(O)cc1)NC(=O)[C@H](CCCNC(=N)N)NC(=O)[C@H](CC(N)=O)NC(=O)[C@H](CC(C)C)NC(=O)[C@H](CCC(=O)O)NC(=O)[C@H](CCC(=O)O)NC(=O)[C@@H]1CCCN1C(=O)[C@H](CO)NC(=O)[C@H](C)NC(=O)[C@H](CC(=O)O)NC(=O)[C@H](CCCCN)NC(=O)[C@H](CCCCNC(=O)CC[C@H](NC(=O)CC[C@H](NC(=O)CCCCCCCCCCCCCCCCCCC(=O)O)C(=O)O)C(=O)O)NC(=O)[C@@H]1CCCN1C(=O)[C@H](C)NC(=O)[C@H](CCC(=O)O)NC(=O)[C@@H]1CCCN1C(=O)[C@H](CCCCN)NC(=O)[C@@H]1CCCN1)C(=O)N[C@@H](CC(N)=O)C(=O)N[C@@H](Cc1c[nH]c2ccccc12)C(=O)N[C@@H](CC(C)C)C(=O)N[C@H](C(=O)N[C@@H](CCCNC(=N)N)C(=O)N[C@@H](CCC(N)=O)C(=O)N[C@@H](CCCNC(=N)N)C(=O)N[C@@H](Cc1ccccc1)C(N)=O)[C@@H](C)O [Compound A64] (H-PKPEAPK([γGlu-γGlu-C20 diacid])KDASPEELNRYYADARHYLNWLTRQRF-NH2; N-terminus assumed)
EC50 (human Y2 receptor): 2.51 nM | NPY4R pEC50 (human Y4 receptor): inactive | EC50 (human Y5 receptor): 12.6 nM
